These results are taken from EP4374708A1, “NUTRITIONAL SUPPLEMENT PREPARATION” (Avea Life AG, priority 2022, dated 2024).

Converted amounts (≈) assume the structure as drawn.

This series can be described thus: physchem. As to conditions: water.

The term solubility denotes how much of the substance goes into solution per volume. The low end stands for little dissolved substance, the high end for much dissolved substance. In the case of `O=C(O)[C@@H]1C[C@@H](O)CN1` [hydroxyproline], the solubility was determined as 198 mM (≈ 26 mg/mL).
